Reference: the NIST ThermoML archive (doi:10.1016/j.jct.2006.05.008)
± gives the expanded uncertainty stated by the source.

Experiment: molar heat capacity at saturation pressure
Conditions: Glass, Small (less than 1 g) adiabatic calorimetry

CCC[n+]1ccn(C)c1.[Br-] [1-methyl-3-propylimidazolium bromide]
molar heat capacity (80.55 K): 98.61 ± 0.59 J/K/mol
molar heat capacity (82.89 K): 100.33 ± 0.6 J/K/mol
molar heat capacity (84.9 K): 101.67 ± 0.61 J/K/mol
molar heat capacity (86.92 K): 103.14 ± 0.62 J/K/mol
molar heat capacity (88.94 K): 104.66 ± 0.62 J/K/mol
molar heat capacity (90.96 K): 106.14 ± 0.63 J/K/mol
molar heat capacity (92.98 K): 107.59 ± 0.63 J/K/mol
molar heat capacity (95 K): 109.05 ± 0.64 J/K/mol
molar heat capacity (97.02 K): 110.46 ± 0.64 J/K/mol
molar heat capacity (99.05 K): 111.82 ± 0.65 J/K/mol
molar heat capacity (101.08 K): 113.17 ± 0.65 J/K/mol
molar heat capacity (103.11 K): 114.53 ± 0.66 J/K/mol
molar heat capacity (105.14 K): 115.8 ± 0.66 J/K/mol
molar heat capacity (107.17 K): 117.19 ± 0.67 J/K/mol
molar heat capacity (109.2 K): 118.42 ± 0.67 J/K/mol
molar heat capacity (111.24 K): 119.73 ± 0.68 J/K/mol
molar heat capacity (113.29 K): 120.92 ± 0.68 J/K/mol
molar heat capacity (115.33 K): 122.2 ± 0.69 J/K/mol
molar heat capacity (117.37 K): 123.41 ± 0.69 J/K/mol
molar heat capacity (119.41 K): 124.68 ± 0.7 J/K/mol
molar heat capacity (121.46 K): 125.82 ± 0.7 J/K/mol
molar heat capacity (123.5 K): 127.01 ± 0.71 J/K/mol
molar heat capacity (125.55 K): 128.16 ± 0.71 J/K/mol
molar heat capacity (127.6 K): 129.31 ± 0.72 J/K/mol
molar heat capacity (129.65 K): 130.51 ± 0.72 J/K/mol
molar heat capacity (131.7 K): 131.69 ± 0.73 J/K/mol
molar heat capacity (133.75 K): 132.94 ± 0.73 J/K/mol
molar heat capacity (135.8 K): 134.11 ± 0.74 J/K/mol
molar heat capacity (137.86 K): 135.27 ± 0.74 J/K/mol
molar heat capacity (139.91 K): 136.51 ± 0.75 J/K/mol
molar heat capacity (141.97 K): 137.66 ± 0.75 J/K/mol
molar heat capacity (144.02 K): 138.89 ± 0.75 J/K/mol
molar heat capacity (146.09 K): 140.08 ± 0.76 J/K/mol
molar heat capacity (148.15 K): 141.29 ± 0.77 J/K/mol
molar heat capacity (150.21 K): 142.47 ± 0.77 J/K/mol
molar heat capacity (152.27 K): 143.7 ± 0.78 J/K/mol
molar heat capacity (154.33 K): 144.86 ± 0.78 J/K/mol
molar heat capacity (156.39 K): 146.04 ± 0.78 J/K/mol
molar heat capacity (158.46 K): 147.24 ± 0.79 J/K/mol
molar heat capacity (160.52 K): 148.42 ± 0.79 J/K/mol
molar heat capacity (162.58 K): 149.59 ± 0.8 J/K/mol
molar heat capacity (164.65 K): 150.76 ± 0.8 J/K/mol
molar heat capacity (166.71 K): 151.98 ± 0.81 J/K/mol
molar heat capacity (168.78 K): 153.15 ± 0.81 J/K/mol
molar heat capacity (170.84 K): 154.38 ± 0.82 J/K/mol
molar heat capacity (172.91 K): 155.61 ± 0.82 J/K/mol
molar heat capacity (174.97 K): 156.8 ± 0.83 J/K/mol
molar heat capacity (177.04 K): 158.04 ± 0.83 J/K/mol
molar heat capacity (179.11 K): 159.26 ± 0.84 J/K/mol
molar heat capacity (181.18 K): 160.5 ± 0.84 J/K/mol
molar heat capacity (183.25 K): 161.87 ± 0.85 J/K/mol
molar heat capacity (185.32 K): 163.21 ± 0.85 J/K/mol
molar heat capacity (187.39 K): 164.56 ± 0.86 J/K/mol
molar heat capacity (189.46 K): 165.92 ± 0.86 J/K/mol
molar heat capacity (191.53 K): 167.36 ± 0.87 J/K/mol
molar heat capacity (193.61 K): 168.95 ± 0.88 J/K/mol
molar heat capacity (195.69 K): 170.66 ± 0.88 J/K/mol
molar heat capacity (197.77 K): 172.38 ± 0.89 J/K/mol
molar heat capacity (199.86 K): 174.39 ± 0.9 J/K/mol
molar heat capacity (201.95 K): 176.91 ± 0.91 J/K/mol
molar heat capacity (202.67 K): 177.34 ± 0.91 J/K/mol
molar heat capacity (204.04 K): 179.87 ± 0.92 J/K/mol
molar heat capacity (205.14 K): 181.79 ± 0.93 J/K/mol
molar heat capacity (206.12 K): 184.42 ± 0.94 J/K/mol
molar heat capacity (207.25 K): 188.13 ± 0.96 J/K/mol
molar heat capacity (208.16 K): 192.2 ± 0.98 J/K/mol
molar heat capacity (209.29 K): 200.7 ± 1 J/K/mol
molar heat capacity (210.11 K): 209.2 ± 1.1 J/K/mol
molar heat capacity (211.19 K): 228.95 ± 1.2 J/K/mol
molar heat capacity (211.92 K): 238.53 ± 1.2 J/K/mol
molar heat capacity (213.01 K): 255.28 ± 1.2 J/K/mol
molar heat capacity (213.79 K): 257.19 ± 1.2 J/K/mol
molar heat capacity (215.01 K): 258.34 ± 1.2 J/K/mol
molar heat capacity (215.82 K): 258.85 ± 1.2 J/K/mol
